According to publication PMC10108266, “Pharmacokinetic characteristics of golidocitinib, a highly selective JAK1 inhibitor, in healthy adult participants” (Frontiers in Immunology, 2023):

How the values were obtained:
[1] = Safety (TEAEs), JACKPOT2 MAD cohorts; assay type: in vivo, human; settings: n = 6
Text: Safety assessments included monitoring of adverse events/serious adverse events, clinical safety laboratory tests (clinical chemistry, hematology, coagulation, and urinalysis tests), 12-lead ECG, vital signs (blood pressure, pulse rate, and respiratory rate), and pulmonary function. All adverse events were coded using the Medical Dictionary for Regulatory Activities (MedDRA), version 22.0. The CTCAE 5.0 was used to define the intensity of AEs.

[2] = Safety (TEAEs), JACKPOT3; assay type: in vivo, human; settings: n = 6
Text: The safety monitoring for both JACKPOT2 and JACKPOT3 was similar, included monitoring of adverse events/serious adverse events, clinical safety laboratory tests (clinical chemistry, hematology, coagulation, and urinalysis tests), 12-lead ECG, vital signs (blood pressure, pulse rate, and respiratory rate), and pulmonary function.

For `COc1nn(C)cc1Nc1nccc(-c2c[nH]c3c(NC(=O)[C@@H](C)N4CCN(C)CC4)cccc23)n1` [golidocitinib, (2R)-N-[3-[2-[(3-Methoxy-1-methyl-pyrazol-4-yl)amino]pyrimidin-4-yl]-1H-indol-7-yl]-2-(4-methylpiperazin-1-yl)propenamide], the Abdominal pain upper ([1]; 25 mg once daily 14 days) was 0 n (%), the “Blood and Lymphatic Disorders” value ([1]; 25 mg once daily 14 days) was 1 (16.7%) n (%) and the Constipation ([1]; 25 mg once daily 14 days) was 1 (16.7%) n (%). For the same molecule, the Dry throat ([1]; 25 mg once daily 14 days) was 0 n (%), the “Gastrointestinal disorders” value ([1]; 25 mg once daily 14 days) was 1 (16.7%) n (%) and the Headache ([1]; 25 mg once daily 14 days) was 0 n (%). For the same molecule, the “Injury, poisoning and procedural complications” value ([1]; 25 mg once daily 14 days) was 0 n (%), the Leukopenia ([1]; 25 mg once daily 14 days) was 0 n (%) and the Nausea ([1]; 25 mg once daily 14 days) was 0 n (%). For the same molecule, the “Nervous System Disorders” value ([1]; 25 mg once daily 14 days) was 0 n (%), the Neutropenia ([1]; 25 mg once daily 14 days) was 1 (16.7%) n (%) and the “Respiratory, Thoracic and Mediastinal Disorders” value ([1]; 25 mg once daily 14 days) was 0 n (%). The Reticulocytopenia ([1]; 25 mg once daily 14 days) was 0 n (%), the “Skin Laceration” value ([1]; 25 mg once daily 14 days) was 0 n (%) and the “Subjects with at least one TEAE” value ([1]; 25 mg once daily 14 days) was 2 (33.3%) n (%). The Abdominal pain upper ([1]; 50 mg once daily 14 days) was 1 (16.7%) n (%), the “Blood and Lymphatic Disorders” value ([1]; 50 mg once daily 14 days) was 0 n (%) and the Constipation ([1]; 50 mg once daily 14 days) was 1 (16.7%) n (%). The Dry throat ([1]; 50 mg once daily 14 days) was 0 n (%), the “Gastrointestinal disorders” value ([1]; 50 mg once daily 14 days) was 1 (16.7%) n (%) and the Headache ([1]; 50 mg once daily 14 days) was 1 (16.7%) n (%). The “Injury, poisoning and procedural complications” value ([1]; 50 mg once daily 14 days) was 0 n (%), the Leukopenia ([1]; 50 mg once daily 14 days) was 0 n (%) and the Nausea ([1]; 50 mg once daily 14 days) was 1 (16.7%) n (%). The “Nervous System Disorders” value ([1]; 50 mg once daily 14 days) was 1 (16.7%) n (%), the Neutropenia ([1]; 50 mg once daily 14 days) was 0 n (%) and the “Respiratory, Thoracic and Mediastinal Disorders” value ([1]; 50 mg once daily 14 days) was 0 n (%). The Reticulocytopenia ([1]; 50 mg once daily 14 days) was 0 n (%), the “Skin Laceration” value ([1]; 50 mg once daily 14 days) was 0 n (%) and the “Subjects with at least one TEAE” value ([1]; 50 mg once daily 14 days) was 1 (16.7%) n (%). For the same molecule, the Abdominal pain upper ([1]; 100 mg once daily 14 days) was 0 n (%), the “Blood and Lymphatic Disorders” value ([1]; 100 mg once daily 14 days) was 3 (50.0%) n (%) and the Constipation ([1]; 100 mg once daily 14 days) was 0 n (%). The Dry throat ([1]; 100 mg once daily 14 days) was 0 n (%), the “Gastrointestinal disorders” value ([1]; 100 mg once daily 14 days) was 0 n (%) and the Headache ([1]; 100 mg once daily 14 days) was 1 (16.7%) n (%). For the same molecule, the “Injury, poisoning and procedural complications” value ([1]; 100 mg once daily 14 days) was 0 n (%), the Leukopenia ([1]; 100 mg once daily 14 days) was 2 (33.3%) n (%) and the Nausea ([1]; 100 mg once daily 14 days) was 0 n (%). The “Nervous System Disorders” value ([1]; 100 mg once daily 14 days) was 1 (16.7%) n (%), the Neutropenia ([1]; 100 mg once daily 14 days) was 3 (50.0%) n (%) and the “Respiratory, Thoracic and Mediastinal Disorders” value ([1]; 100 mg once daily 14 days) was 0 n (%). The Reticulocytopenia ([1]; 100 mg once daily 14 days) was 1 (16.7%) n (%), the “Skin Laceration” value ([1]; 100 mg once daily 14 days) was 0 n (%) and the “Subjects with at least one TEAE” value ([1]; 100 mg once daily 14 days) was 3 (50.0%) n (%). The ALT Increased ([2]; 25 mg) was 0 n (%), the AST Increased ([2]; 25 mg) was 0 n (%) and the Abdominal discomfort ([2]; 25 mg) was 1 (16.7%) n (%). For the same molecule, the “Blood and Lymphatic System Disorders” value ([2]; 25 mg) was 1 (16.7%) n (%), the Blood bilirubin increased ([2]; 25 mg) was 0 n (%) and the Blood cholesterol increased ([2]; 25 mg) was 0 n (%). The C-reactive protein increased ([2]; 25 mg) was 1 (16.7%) n (%), the Diarrhea ([2]; 25 mg) was 1 (16.7%) n (%) and the “ECG QT prolonged” value ([2]; 25 mg) was 0 n (%). For the same molecule, the Epistaxis ([2]; 25 mg) was 0 n (%), the Gastrointestinal disorders ([2]; 25 mg) was 2 (33.3%) n (%) and the Glucose urine present ([2]; 25 mg) was 0 n (%). The Hemoglobin decreased ([2]; 25 mg) was 0 n (%), the Hypertriglyceridemia ([2]; 25 mg) was 0 n (%) and the “Injury, poisoning and procedural complications” value ([2]; 25 mg) was 1 (16.7%) n (%). The Investigations ([2]; 25 mg) was 2 (33.3%) n (%), the LDH increased ([2]; 25 mg) was 0 n (%) and the LDL increased ([2]; 25 mg) was 0 n (%). For the same molecule, the Leukocytosis ([2]; 25 mg) was 1 (16.7%) n (%), the Limb injury ([2]; 25 mg) was 1 (16.7%) n (%) and the “Metabolism and nutrition disorders” value ([2]; 25 mg) was 0 n (%). The “Musculoskeletal and connective tissue disorders” value ([2]; 25 mg) was 0 n (%), the Musculoskeletal pain ([2]; 25 mg) was 0 n (%) and the Musculoskeletal stiffness ([2]; 25 mg) was 0 n (%). The Neutrophil count decreased ([2]; 25 mg) was 1 (16.7%) n (%), the Productive cough ([2]; 25 mg) was 1 (16.7%) n (%) and the “Respiratory, Thoracic and Mediastinal Disorders” value ([2]; 25 mg) was 1 (16.7%) n (%). For the same molecule, the Rhinorrhea ([2]; 25 mg) was 0 n (%), the “Subjects with at least one TEAE” value ([2]; 25 mg) was 4 (66.7%) n (%) and the Wound ([2]; 25 mg) was 0 n (%). For the same molecule, the ALT Increased ([2]; 50 mg) was 1 (16.7%) n (%), the AST Increased ([2]; 50 mg) was 2 (33.3%) n (%) and the Abdominal discomfort ([2]; 50 mg) was 0 n (%). The “Blood and Lymphatic System Disorders” value ([2]; 50 mg) was 0 n (%), the Blood bilirubin increased ([2]; 50 mg) was 1 (16.7%) n (%) and the Blood cholesterol increased ([2]; 50 mg) was 0 n (%). The C-reactive protein increased ([2]; 50 mg) was 0 n (%), the Diarrhea ([2]; 50 mg) was 0 n (%) and the “ECG QT prolonged” value ([2]; 50 mg) was 0 n (%). The Epistaxis ([2]; 50 mg) was 0 n (%), the Gastrointestinal disorders ([2]; 50 mg) was 0 n (%) and the Glucose urine present ([2]; 50 mg) was 0 n (%). The Hemoglobin decreased ([2]; 50 mg) was 0 n (%), the Hypertriglyceridemia ([2]; 50 mg) was 1 (16.7%) n (%) and the “Injury, poisoning and procedural complications” value ([2]; 50 mg) was 0 n (%). For the same molecule, the Investigations ([2]; 50 mg) was 3 (50.0%) n (%), the LDH increased ([2]; 50 mg) was 1 (16.7%) n (%) and the LDL increased ([2]; 50 mg) was 1 (16.7%) n (%). The Leukocytosis ([2]; 50 mg) was 0 n (%), the Limb injury ([2]; 50 mg) was 0 n (%) and the “Metabolism and nutrition disorders” value ([2]; 50 mg) was 1 (16.7%) n (%). The “Musculoskeletal and connective tissue disorders” value ([2]; 50 mg) was 0 n (%), the Musculoskeletal pain ([2]; 50 mg) was 0 n (%) and the Musculoskeletal stiffness ([2]; 50 mg) was 0 n (%). The Neutrophil count decreased ([2]; 50 mg) was 0 n (%), the Productive cough ([2]; 50 mg) was 0 n (%) and the “Respiratory, Thoracic and Mediastinal Disorders” value ([2]; 50 mg) was 0 n (%). The Rhinorrhea ([2]; 50 mg) was 0 n (%), the “Subjects with at least one TEAE” value ([2]; 50 mg) was 3 (50.0%) n (%) and the Wound ([2]; 50 mg) was 0 n (%). For the same molecule, the ALT Increased ([2]; 100 mg) was 1 (16.7%) n (%), the AST Increased ([2]; 100 mg) was 0 n (%) and the Abdominal discomfort ([2]; 100 mg) was 0 n (%). The “Blood and Lymphatic System Disorders” value ([2]; 100 mg) was 0 n (%), the Blood bilirubin increased ([2]; 100 mg) was 0 n (%) and the Blood cholesterol increased ([2]; 100 mg) was 0 n (%). For the same molecule, the C-reactive protein increased ([2]; 100 mg) was 1 (16.7%) n (%), the Diarrhea ([2]; 100 mg) was 0 n (%) and the “ECG QT prolonged” value ([2]; 100 mg) was 0 n (%). For the same molecule, the Epistaxis ([2]; 100 mg) was 1 (16.7%) n (%), the Gastrointestinal disorders ([2]; 100 mg) was 0 n (%) and the Glucose urine present ([2]; 100 mg) was 0 n (%). For the same molecule, the Hemoglobin decreased ([2]; 100 mg) was 0 n (%), the Hypertriglyceridemia ([2]; 100 mg) was 2 (33.3%) n (%) and the “Injury, poisoning and procedural complications” value ([2]; 100 mg) was 0 n (%). The Investigations ([2]; 100 mg) was 2 (33.3%) n (%), the LDH increased ([2]; 100 mg) was 0 n (%) and the LDL increased ([2]; 100 mg) was 0 n (%). The Leukocytosis ([2]; 100 mg) was 0 n (%), the Limb injury ([2]; 100 mg) was 0 n (%) and the “Metabolism and nutrition disorders” value ([2]; 100 mg) was 2 (33.3%) n (%). The “Musculoskeletal and connective tissue disorders” value ([2]; 100 mg) was 1 (16.7%) n (%), the Musculoskeletal pain ([2]; 100 mg) was 0 n (%) and the Musculoskeletal stiffness ([2]; 100 mg) was 1 (16.7%) n (%). The Neutrophil count decreased ([2]; 100 mg) was 0 n (%), the Productive cough ([2]; 100 mg) was 0 n (%) and the “Respiratory, Thoracic and Mediastinal Disorders” value ([2]; 100 mg) was 1 (16.7%) n (%). The Rhinorrhea ([2]; 100 mg) was 0 n (%), the “Subjects with at least one TEAE” value ([2]; 100 mg) was 4 (66.7%) n (%) and the Wound ([2]; 100 mg) was 0 n (%). For the same molecule, the ALT Increased ([2]; 150 mg) was 0 n (%), the AST Increased ([2]; 150 mg) was 0 n (%) and the Abdominal discomfort ([2]; 150 mg) was 0 n (%). The “Blood and Lymphatic System Disorders” value ([2]; 150 mg) was 0 n (%), the Blood bilirubin increased ([2]; 150 mg) was 2 (33.3%) n (%) and the Blood cholesterol increased ([2]; 150 mg) was 1 (16.7%) n (%). For the same molecule, the C-reactive protein increased ([2]; 150 mg) was 1 (16.7%) n (%), the Diarrhea ([2]; 150 mg) was 1 (16.7%) n (%) and the “ECG QT prolonged” value ([2]; 150 mg) was 1 (16.7%) n (%). The Epistaxis ([2]; 150 mg) was 0 n (%), the Gastrointestinal disorders ([2]; 150 mg) was 1 (16.7%) n (%) and the Glucose urine present ([2]; 150 mg) was 1 (16.7%) n (%). For the same molecule, the Hemoglobin decreased ([2]; 150 mg) was 1 (16.7%) n (%), the Hypertriglyceridemia ([2]; 150 mg) was 2 (33.3%) n (%) and the “Injury, poisoning and procedural complications” value ([2]; 150 mg) was 1 (16.7%) n (%). The Investigations ([2]; 150 mg) was 4 (66.7%) n (%), the LDH increased ([2]; 150 mg) was 0 n (%) and the LDL increased ([2]; 150 mg) was 1 (16.7%) n (%). The Leukocytosis ([2]; 150 mg) was 0 n (%), the Limb injury ([2]; 150 mg) was 0 n (%) and the “Metabolism and nutrition disorders” value ([2]; 150 mg) was 2 (33.3%) n (%). The “Musculoskeletal and connective tissue disorders” value ([2]; 150 mg) was 1 (16.7%) n (%), the Musculoskeletal pain ([2]; 150 mg) was 1 (16.7%) n (%) and the Musculoskeletal stiffness ([2]; 150 mg) was 0 n (%). For the same molecule, the Neutrophil count decreased ([2]; 150 mg) was 2 (33.3%) n (%), the Productive cough ([2]; 150 mg) was 0 n (%) and the “Respiratory, Thoracic and Mediastinal Disorders” value ([2]; 150 mg) was 1 (16.7%) n (%). The Rhinorrhea ([2]; 150 mg) was 1 (16.7%) n (%), the “Subjects with at least one TEAE” value ([2]; 150 mg) was 6 (100%) n (%) and the Wound ([2]; 150 mg) was 1 (16.7%) n (%).
